# Experiments:
# Test in all cases: biochemical
# Parameters in all cases: DiscoverX KINOMEscan scanMAX competition binding panel, single concentration, percent of control; remaining binding: dose or concentration left out as unconfirmed
# Settings in all cases: KINOMEscan binding, percent of control; read-out: Table S4_SCANMAX REPORT - related to Fig. 1 / Percent Control
# [1] = molecular target: MELK (Homo sapiens, UniProt Q14680)
# [2] = molecular target: RAF1 (Homo sapiens, UniProt P04049)
# [3] = molecular target: PIKFYVE (Homo sapiens, UniProt Q9Y2I7)
# PIKFYVE, sequence (Q9Y2I7 whole entry): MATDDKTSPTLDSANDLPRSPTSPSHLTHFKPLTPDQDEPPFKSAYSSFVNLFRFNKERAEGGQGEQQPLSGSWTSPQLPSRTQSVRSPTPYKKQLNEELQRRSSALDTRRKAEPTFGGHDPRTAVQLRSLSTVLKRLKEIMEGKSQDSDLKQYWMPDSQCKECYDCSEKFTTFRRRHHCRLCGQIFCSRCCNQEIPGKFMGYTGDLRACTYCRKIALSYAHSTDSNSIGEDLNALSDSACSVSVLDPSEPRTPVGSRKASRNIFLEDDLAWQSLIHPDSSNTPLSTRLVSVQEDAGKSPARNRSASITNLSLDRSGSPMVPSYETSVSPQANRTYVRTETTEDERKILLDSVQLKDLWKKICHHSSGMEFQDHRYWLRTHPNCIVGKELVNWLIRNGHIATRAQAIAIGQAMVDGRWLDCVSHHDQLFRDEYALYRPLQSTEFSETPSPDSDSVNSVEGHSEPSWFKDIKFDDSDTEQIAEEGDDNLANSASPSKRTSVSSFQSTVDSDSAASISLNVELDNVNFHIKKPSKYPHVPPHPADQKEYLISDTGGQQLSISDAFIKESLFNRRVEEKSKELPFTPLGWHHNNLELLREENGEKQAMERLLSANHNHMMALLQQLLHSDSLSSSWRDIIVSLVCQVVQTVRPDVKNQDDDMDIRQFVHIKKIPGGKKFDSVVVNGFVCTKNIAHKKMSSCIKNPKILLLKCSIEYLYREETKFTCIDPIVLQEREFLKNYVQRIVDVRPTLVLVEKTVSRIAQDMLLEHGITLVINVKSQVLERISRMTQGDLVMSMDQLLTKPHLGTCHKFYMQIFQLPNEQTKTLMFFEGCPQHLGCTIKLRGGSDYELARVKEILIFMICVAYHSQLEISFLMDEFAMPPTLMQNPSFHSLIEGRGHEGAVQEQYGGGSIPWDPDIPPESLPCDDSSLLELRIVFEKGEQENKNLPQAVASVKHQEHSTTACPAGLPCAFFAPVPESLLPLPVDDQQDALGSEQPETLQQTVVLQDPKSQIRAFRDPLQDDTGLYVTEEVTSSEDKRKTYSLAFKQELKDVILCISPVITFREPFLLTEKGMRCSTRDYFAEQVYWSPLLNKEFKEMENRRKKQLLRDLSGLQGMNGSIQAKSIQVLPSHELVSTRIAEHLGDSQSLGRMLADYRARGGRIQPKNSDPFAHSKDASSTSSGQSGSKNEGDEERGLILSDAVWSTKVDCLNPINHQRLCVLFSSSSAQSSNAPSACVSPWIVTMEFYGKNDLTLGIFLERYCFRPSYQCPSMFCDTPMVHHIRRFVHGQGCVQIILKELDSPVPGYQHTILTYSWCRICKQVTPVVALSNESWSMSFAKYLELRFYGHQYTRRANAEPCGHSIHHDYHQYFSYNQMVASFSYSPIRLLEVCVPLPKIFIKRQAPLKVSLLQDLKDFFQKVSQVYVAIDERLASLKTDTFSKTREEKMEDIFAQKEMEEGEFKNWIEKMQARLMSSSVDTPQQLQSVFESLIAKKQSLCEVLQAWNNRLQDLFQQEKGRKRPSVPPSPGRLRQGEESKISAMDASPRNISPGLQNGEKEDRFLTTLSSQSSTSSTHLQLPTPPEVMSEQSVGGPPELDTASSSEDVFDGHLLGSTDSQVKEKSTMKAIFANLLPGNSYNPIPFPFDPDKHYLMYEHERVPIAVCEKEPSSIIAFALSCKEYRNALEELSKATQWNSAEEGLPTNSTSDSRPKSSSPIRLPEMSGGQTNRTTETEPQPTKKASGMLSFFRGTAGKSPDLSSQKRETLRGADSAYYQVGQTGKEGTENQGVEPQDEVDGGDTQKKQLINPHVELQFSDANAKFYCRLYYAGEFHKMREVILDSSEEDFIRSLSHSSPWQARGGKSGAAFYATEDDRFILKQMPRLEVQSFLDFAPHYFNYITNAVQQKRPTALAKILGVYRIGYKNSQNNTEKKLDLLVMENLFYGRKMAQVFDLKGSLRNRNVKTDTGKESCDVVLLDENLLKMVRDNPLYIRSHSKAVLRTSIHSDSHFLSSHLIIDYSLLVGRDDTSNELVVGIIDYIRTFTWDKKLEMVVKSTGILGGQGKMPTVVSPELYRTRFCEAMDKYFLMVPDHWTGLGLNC
# [4] = molecular target: T1, RSK4(Kin.Dom.2-C-terminal) (Homo sapiens, UniProt Q9UK32)
# T1 construct: gene RPS6KA6; Kin.Dom.2-C-terminal
# [5] = molecular target: PAK3 (Homo sapiens, UniProt O75914)
# [6] = molecular target: MAP4K3 (Homo sapiens, UniProt Q8IVH8)
# [7] = molecular target: AKT2 (Homo sapiens, UniProt P31751)
# AKT2, sequence (P31751 whole entry): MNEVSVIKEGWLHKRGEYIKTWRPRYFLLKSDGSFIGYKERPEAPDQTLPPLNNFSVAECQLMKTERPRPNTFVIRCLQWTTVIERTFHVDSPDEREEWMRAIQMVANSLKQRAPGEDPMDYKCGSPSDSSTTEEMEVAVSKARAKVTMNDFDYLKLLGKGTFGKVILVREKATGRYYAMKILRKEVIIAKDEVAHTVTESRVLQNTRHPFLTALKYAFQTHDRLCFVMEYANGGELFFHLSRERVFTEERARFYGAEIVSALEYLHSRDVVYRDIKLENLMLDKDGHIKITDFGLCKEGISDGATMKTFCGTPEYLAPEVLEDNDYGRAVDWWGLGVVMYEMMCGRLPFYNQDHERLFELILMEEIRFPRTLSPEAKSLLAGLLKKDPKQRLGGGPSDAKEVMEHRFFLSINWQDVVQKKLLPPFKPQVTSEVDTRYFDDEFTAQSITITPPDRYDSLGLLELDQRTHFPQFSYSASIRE
# [8] = molecular target: MKNK2 (Homo sapiens, UniProt Q9HBH9)
# MKNK2, sequence (Q9HBH9 whole entry): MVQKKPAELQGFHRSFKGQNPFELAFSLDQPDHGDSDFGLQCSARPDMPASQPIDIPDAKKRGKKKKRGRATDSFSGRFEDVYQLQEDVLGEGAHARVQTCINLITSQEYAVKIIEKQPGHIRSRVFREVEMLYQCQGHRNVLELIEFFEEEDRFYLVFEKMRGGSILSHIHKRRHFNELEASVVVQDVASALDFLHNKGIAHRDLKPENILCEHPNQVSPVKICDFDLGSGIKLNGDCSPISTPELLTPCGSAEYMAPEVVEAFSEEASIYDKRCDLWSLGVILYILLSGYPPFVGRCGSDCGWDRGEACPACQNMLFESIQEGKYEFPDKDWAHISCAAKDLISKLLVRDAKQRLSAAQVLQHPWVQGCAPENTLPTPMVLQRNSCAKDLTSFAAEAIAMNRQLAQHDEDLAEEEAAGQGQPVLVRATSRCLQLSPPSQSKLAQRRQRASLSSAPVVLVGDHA
# [9] = molecular target: PRKG1 (Homo sapiens, UniProt Q13976)
# [10] = molecular target: PIP5K1C (Homo sapiens, UniProt O60331)
# [11] = molecular target: PHKG2 (Homo sapiens, UniProt P15735)
# [12] = molecular target: PIK3CA(E545K) (Homo sapiens, UniProt P42336, E545K)
# [13] = molecular target: CASK (Homo sapiens, UniProt O14936)
# [14] = molecular target: RIPK1 (Homo sapiens, UniProt Q13546)
# [15] = molecular target: T2, CDC2L1 (Homo sapiens, UniProt P21127)
# T2 construct: gene CDK11B
# [16] = molecular target: T3, S6K1 (Homo sapiens, UniProt P23443)
# T3 construct: gene RPS6KB1
# [17] = molecular target: T4, ABL1(E255K)-phosphorylated (Homo sapiens, UniProt P00519, E255K)
# T4 construct: phosphorylated
# T4 sequence (P00519 whole entry E255K): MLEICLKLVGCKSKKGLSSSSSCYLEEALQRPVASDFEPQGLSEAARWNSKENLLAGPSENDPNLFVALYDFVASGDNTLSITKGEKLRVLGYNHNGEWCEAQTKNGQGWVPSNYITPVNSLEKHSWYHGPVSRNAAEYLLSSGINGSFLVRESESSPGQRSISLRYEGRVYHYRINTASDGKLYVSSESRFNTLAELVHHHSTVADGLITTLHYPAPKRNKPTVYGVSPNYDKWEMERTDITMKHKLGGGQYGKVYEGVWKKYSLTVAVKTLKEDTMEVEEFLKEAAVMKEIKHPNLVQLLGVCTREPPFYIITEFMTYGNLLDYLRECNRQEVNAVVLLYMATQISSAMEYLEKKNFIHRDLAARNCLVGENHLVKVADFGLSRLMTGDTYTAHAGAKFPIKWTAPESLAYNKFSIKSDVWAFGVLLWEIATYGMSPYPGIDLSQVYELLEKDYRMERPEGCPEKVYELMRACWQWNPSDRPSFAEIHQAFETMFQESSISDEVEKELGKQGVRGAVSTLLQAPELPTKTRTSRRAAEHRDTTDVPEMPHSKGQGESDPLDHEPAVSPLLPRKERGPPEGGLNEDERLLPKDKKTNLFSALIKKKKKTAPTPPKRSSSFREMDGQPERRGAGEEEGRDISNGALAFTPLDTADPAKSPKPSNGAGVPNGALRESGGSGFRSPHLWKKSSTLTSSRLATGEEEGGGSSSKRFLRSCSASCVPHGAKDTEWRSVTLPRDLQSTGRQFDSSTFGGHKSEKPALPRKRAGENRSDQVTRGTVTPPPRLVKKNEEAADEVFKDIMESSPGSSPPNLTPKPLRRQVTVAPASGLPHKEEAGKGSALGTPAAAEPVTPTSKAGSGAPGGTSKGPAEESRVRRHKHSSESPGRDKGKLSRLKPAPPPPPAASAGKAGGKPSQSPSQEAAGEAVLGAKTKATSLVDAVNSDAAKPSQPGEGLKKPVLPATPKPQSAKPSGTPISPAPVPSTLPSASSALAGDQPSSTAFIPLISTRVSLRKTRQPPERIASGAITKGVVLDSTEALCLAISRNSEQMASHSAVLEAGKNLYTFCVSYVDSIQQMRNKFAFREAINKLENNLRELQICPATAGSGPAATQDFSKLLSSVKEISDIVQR
# [18] = molecular target: KIT (Homo sapiens, UniProt P10721)
# MELK, sequence (Q14680 whole entry): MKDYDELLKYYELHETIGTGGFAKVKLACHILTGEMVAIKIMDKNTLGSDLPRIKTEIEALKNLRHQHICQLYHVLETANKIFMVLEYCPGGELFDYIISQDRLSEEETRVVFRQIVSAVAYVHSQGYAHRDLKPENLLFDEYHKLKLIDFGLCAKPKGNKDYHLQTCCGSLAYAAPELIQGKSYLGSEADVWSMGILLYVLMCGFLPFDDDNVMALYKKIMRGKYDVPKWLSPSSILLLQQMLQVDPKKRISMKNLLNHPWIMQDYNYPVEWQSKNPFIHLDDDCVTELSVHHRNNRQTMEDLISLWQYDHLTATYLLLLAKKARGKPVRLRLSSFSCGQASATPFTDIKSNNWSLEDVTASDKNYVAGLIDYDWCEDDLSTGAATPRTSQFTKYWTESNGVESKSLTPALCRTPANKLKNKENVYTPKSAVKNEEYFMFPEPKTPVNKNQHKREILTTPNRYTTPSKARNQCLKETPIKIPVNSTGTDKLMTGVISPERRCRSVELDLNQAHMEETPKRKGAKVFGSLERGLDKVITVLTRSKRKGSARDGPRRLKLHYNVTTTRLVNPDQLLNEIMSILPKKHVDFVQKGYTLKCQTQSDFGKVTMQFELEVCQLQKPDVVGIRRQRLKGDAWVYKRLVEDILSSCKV
smiles,measurement,setting,value
c1ccc2c(c1)Sc1ccccc1N2CCN1CCOCC1 [J54],remaining binding,[1],84%
same,remaining binding,[2],100%
same,remaining binding,[3],94%
same,remaining binding,[4],99%
same,remaining binding,[5],100%
same,remaining binding,[6],100%
same,remaining binding,[7],100%
same,remaining binding,[8],90%
same,remaining binding,[9],86%
same,remaining binding,[10],100%
same,remaining binding,[11],94%
same,remaining binding,[12],100%
same,remaining binding,[13],100%
same,remaining binding,[14],84%
same,remaining binding,[15],100%
same,remaining binding,[16],100%
same,remaining binding,[17],86%
same,remaining binding,[18],100%

# Source: publication PMC7486443, “Generation of Phenothiazine with Potent Anti-TLK1 Activity for Prostate Cancer Therapy” (iScience, 2020)
